Source: PMC7106896, “Synthesis and biological evaluation of 2-(4-methylsulfonyl phenyl) indole derivatives: multi-target compounds with dual antimicrobial and anti-inflammatory activities” (BMC Chemistry, 2020)
Values after ≈ are worked out from the molar mass of the structure shown.

Experiments:
[1] = tested on: MRSA bacteria and E. coli, K. pneumoniae, P. aeruginosa, and A. baumannii; test: Antibacterial screening, result pooled over the five bacteria; format: cell-based; settings: read-out: growth inhibition, range over MRSA, E. coli, K. pneumoniae, P. aeruginosa and A. baumannii
Experimental: (§1) The antimicrobial study was performed by CO-ADD (The Community for Antimicrobial Drug Discovery), funded by the Wellcome Trust (UK) and The University of Queensland (Australia). Evaluation of all synthesized compounds for their antimicrobial activities was done against five pathogenic bacteria, methicillin-resistant Staphylococcus aureus (ATCC 43300) as Gram-positive bacteria, Escherichia coli (ATCC 25922), Klebsiella pneumonia (ATCC 700603), Acinetobacter baumannii (ATCC 19606) and Pseudomonas aeruginosa (ATCC 27853) as Gram-negative bacteria and antifungal activity against two pathogenic fungal strains Candida albicans (ATCC 90028) and Cryptococcus neoformans var. grubii (H99; ATCC 208821) (Table 1).

[2] = tested on: human recombinant COX-2; test: In vitro COX inhibition colorimetric assay; format: biochemical; settings: COX-1 IC50/COX-2 IC50
[3] = tested on: human red blood cells; test: Hemolysis of human red blood cells; format: cell-based
Experimental: (§2) The safety margin for the active compounds to human cells was determined through cytotoxicity against human embryonic kidney cell line and hemolysis of human red blood cells. The tested compounds 7a, 7g, and 7i were tolerated and non-toxic to human cells as the cytotoxic and hemolytic dose was higher than the therapeutic dose (Table 2).

[4] = tested on: carrageenan-induced rat paw edema; test: Carrageenan-induced rat paw edema assay; format: in vivo; settings: for Edema thickness (mm) ± SEM: n = 4
Experimental: Pretreatment of rats with compounds 7a–k, 8a–c, and 9a–c before injection with carrageenan in rat paw which induces inflammation and then the percentage of paw edema reduction was measured after certain hours according to previously reported procedures.

[5] = tested on: Escherichia coli (ATCC 25922); test: Antimicrobial screening (CO-ADD), growth inhibition at single concentration; format: cell-based; settings: ATCC25922, at 32 µg/mL concentration, read-out: growth inhibition % Ec (E. coli)
Experimental: as §1

[6] = tested on: Acinetobacter baumannii (ATCC 19606); test: as above; format: cell-based; settings: ATCC19606, at 32 µg/mL concentration, read-out: growth inhibition % Ab (A. baumannii)
Experimental: as §1

[7] = tested on: methicillin-resistant Staphylococcus aureus (ATCC 43300); test: as above; format: cell-based; settings: ATCC 43300 / MRSA, at 32 µg/mL concentration, read-out: growth inhibition % Sa (MRSA)
Experimental: as §1

[8] = tested on: Klebsiella pneumonia (ATCC 700603); test: as above; format: cell-based; settings: Klebsiella pneumoniae, ATCC700603; at 32 µg/mL concentration; read-out: growth inhibition % Kp (K. pneumoniae)
Experimental: as §1

[9] = tested on: Pseudomonas aeruginosa (ATCC 27853); test: as above; format: cell-based; settings: ATCC27853, at 32 µg/mL concentration, read-out: growth inhibition % Pa (P. aeruginosa)
Experimental: as §1

[10] = tested on: P. aeruginosa; test: Minimal inhibitory concentration measurement; format: cell-based; settings: Pseudomonas aeruginosa; read-out: MIC Pa (P. aeruginosa)
[11] = tested on: K. pneumoniae
[12] = tested on: C. albicans; test: Minimal inhibitory concentration measurement; format: cell-based; settings: Candida albicans; read-out: MIC Ca (C. albicans)
[13] = Cytotoxicity against human embryonic kidney cell line; format: cell-based; settings: read-out: CC50 (concentration at 50% cytotoxicity)
Experimental: as §2

[14] = tested on: Candida albicans (ATCC 90028); test: Antifungal screening (CO-ADD), growth inhibition at single concentration; format: cell-based; settings: ATCC90028, at 32 µg/mL concentration, read-out: growth inhibition % Ca (C. albicans)
Experimental: as §1

[15] = molecular target: T1, Ovine COX-1 (Ovis aries, UniProt P05979); test: In vitro COX inhibition colorimetric assay; format: biochemical
T1 construct: purchased Cayman Chemical, Ann Arbor, MI, USA 760111
T1 sequence (P05979 25-600): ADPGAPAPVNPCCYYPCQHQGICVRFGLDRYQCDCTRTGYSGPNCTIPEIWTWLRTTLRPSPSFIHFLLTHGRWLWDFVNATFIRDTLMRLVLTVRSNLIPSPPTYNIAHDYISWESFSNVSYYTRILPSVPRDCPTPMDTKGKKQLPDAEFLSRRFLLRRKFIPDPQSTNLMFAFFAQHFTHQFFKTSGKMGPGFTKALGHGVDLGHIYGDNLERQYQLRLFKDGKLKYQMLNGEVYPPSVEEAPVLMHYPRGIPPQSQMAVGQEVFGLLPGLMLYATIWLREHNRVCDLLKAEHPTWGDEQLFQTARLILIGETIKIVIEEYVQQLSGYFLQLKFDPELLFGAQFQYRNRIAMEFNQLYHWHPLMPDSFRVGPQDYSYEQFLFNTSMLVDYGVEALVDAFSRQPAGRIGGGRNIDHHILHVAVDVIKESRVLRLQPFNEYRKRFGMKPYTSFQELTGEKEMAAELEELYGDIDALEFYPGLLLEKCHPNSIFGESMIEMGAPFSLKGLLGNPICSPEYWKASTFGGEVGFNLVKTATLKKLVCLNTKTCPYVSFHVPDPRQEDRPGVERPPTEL

[16] = tested on: A. baumannii; test: Minimal inhibitory concentration measurement; format: cell-based; settings: Acinetobacter baumannii; read-out: MIC Ab (A. baumannii)
[17] = tested on: E. coli; test: Minimal inhibitory concentration measurement; format: cell-based; settings: Escherichia coli; read-out: MIC Ec (E. coli)
[18] = tested on: MRSA; test: Minimal inhibitory concentration measurement; format: cell-based; settings: Staphylococcus aureus, read-out: MIC Sa (MRSA)
[19] = tested on: C. neoformans var. grubii; test: Minimal inhibitory concentration measurement; format: cell-based; settings: Cryptococcus neoformans; read-out: MIC Cn (C. neoformans var. grubii)

- melting point: 212 to 214 °C
- MIC [10]: 2 µg/mL (≈ 4.11 µM)
- MIC Kp (K. pneumoniae) [11]: 2 µg/mL (≈ 4.11 µM)
- MIC [12]: > 32 µg/mL
- IC50 [15]: 13.2 µM
- MIC [16]: 4 µg/mL (≈ 8.22 µM)
- MIC [17]: ≤ 0.25 µg/mL
- MIC [18]: 2 µg/mL (≈ 4.11 µM)
- MIC [19]: > 32 µg/mL
Compound: CS(=O)(=O)c1ccc(-c2[nH]c3ccc(F)cc3c2/C=N/Nc2ccc(S(N)(=O)=O)cc2)cc1 [Compound 7i, 4-(2-((5-Fluoro-2-(4-(methylsulfonyl)phenyl)-1H-indol-3yl)methylene)hydrazinyl) benzene sulfonamide]
- inhibition at 32 µg/mL [1]: 85.8 to 97.8%
- Selectivity index (SI) [2]: 132
- HC10 (concentration at 10% hemolysis) [3]: > 32 µg/mL
- Edema inhibition % ([4]; 1 h): 73.1%
- Edema thickness (mm) ± SEM ([4]; 1 h): 0.705 ± 0.047 mm
- Edema inhibition % ([4]; 3 h): 94.3%
- Edema thickness (mm) ± SEM ([4]; 3 h): 0.127 ± 0.009 mm
- Edema inhibition % ([4]; 6 h): 90.1%
- Edema thickness (mm) ± SEM ([4]; 6 h): 0.187 ± 0.015 mm
- inhibition at 32 µg/mL [5]: 96.5%
- inhibition at 32 µg/mL [6]: 94.3%
- inhibition at 32 µg/mL [7]: 95.2%
- inhibition at 32 µg/mL [8]: 94.4%
- inhibition at 32 µg/mL [9]: 96.9%
- CC50 [13]: 2.99 µg/mL (≈ 6.14 µM)
- inhibition at 32 µg/mL [14]: 15.3%
